In patent publication US20230099822A1, “MR1 LIGANDS AND PHARMACEUTICAL COMPOSITIONS FOR IMMUNOMODULATION” (UNIVERSITÄT BASEL, priority 2020, published 2023):
Each block holds one compound with its values, some of them ahead of it.

How the values were obtained:
MR1T cell clones [1] = test: MR1T cell activation assay with THP-1 cells incubated with compounds (cytokine ELISA); format: cell-based, human; conditions: for number of MR1T clones significantly stimulated: fourteen randomly selected MR1T clones, THP-1 cells, IFN-γ (FIG. 12B); for activation of MR1T clone MCA3C3 (IFN-γ): THP-1 cells pre-incubated with 250 μM of molecule (FIG. 8G, right); for activation of MR1T clone DGB129 (IFN-γ): THP-1 cells pre-incubated with 250 μM of molecule (FIG. 8G, middle)
Description: MR1T cells (5×10^4/well unless otherwise indicated) were co-cultured with the indicated APCs (10^5 cells per well unless otherwise indicated) for 18 h in 120 μL volume in triplicate.
When nucleobases, nucleosides or nucleotides (all 250 μM) and synthetic compounds M3ADE, OPdA, M1G or OPdC were used to stimulate T cells, the THP-1 cells (10^5/well) were cultured 2 h with the indicated molecules or medium only, prior to T-cell addition. When a single concentration of synthetic antigens was used, 100 μM OPdA, 100 μM OPdC and 13 μM M1G were used for all clones, while 100 μM M3ADE was used for all clones except DGB129, AC1A4, AC1B76 and AVA46 for which 1 μM was used.

[2] = biological target: T1, MR1 surface expression on THP-1 MR1 cells (Homo sapiens, UniProt Q95460); test: Cell surface MR1 modulation on APCs (flow cytometry, anti-MR1 mAb 26.5); format: cell-based; conditions: for cell surface MR1 upregulation on APCs (in words): pulsed APC / THP1-MR1 cells
T1 construct: expressed in transfected cells; host or cells: THP-1 (ATCC TIB-202) stably expressing MR1 (THP1-MR1)
Description: […] […] For each condition, net MFI was calculated subtracting isotype MFI from anti-MR1 MFI and fold change of cells treated with synthetic molecules over cells treated with vehicle was calculated.

MR1T cell clones [3] = test: Competition assay for stimulation of MR1T cell clones; format: cell-based, human; conditions: APCs with compound 2 h (3 doses), then antigen at optimal concentration, cytokine ELISA
Description: As positive control for competition with antigens, Ac-6-FP was used (100 μM). Supernatants were collected after 24 h for cytokine analysis measured by ELISA.

[4] = THP-1 MR1 cells, 3 h at 37° C., 3 doses each

MRI upregulation [2, 4]: YES
Structure (SMILES): O=C/C=C/Nc1ncnc2c1ncn2[C@H]1C[C@H](O)[C@@H](CO)O1 (stereo in doubt) [Cmpd 12, N6-(3-oxo-1-propenyl)-2′-deoxyadenosine]
Reactive T cells isolated (MR1T cell clones [1]): YES

MRI upregulation [2, 4]: YES
Structure (SMILES): O=c1[nH]cc([C@@H]2O[C@H](CO)C(O)C2O)c(=O)[nH]1 (stereo in doubt) [Cmpd 36, 5-(3,4-dihydroxy-5-(hydroxymethyl)tetrahydrofuran-2-yl)pyrimidine-2,4(1H,3H)-dione]
Competition (MR1T cell clones [3]): YES

MRI upregulation [2, 4]: YES
Structure (SMILES): CCCCCC(=O)Cc1cnc2c3ncn([C@H]4C[C@H](O)[C@@H](CO)O4)c3ncn12 [Cmpd 14, 1-(3-((2R,4S,5R)-4-hydroxy-5-(hydroxymethyl)tetrahydrofuran-2-yl)-3H-imidazo[2,1-i]purin-7-yl)heptan-2-one]

MRI upregulation [2, 4]: YES
Structure (SMILES): CNc1nc2c(ncn2[C@@H]2O[C@H](CO)[C@@H](O)[C@H]2O)c(=O)[nH]1 [Cmpd 16, N2-methylguanosine]

MRI upregulation [2, 4]: YES
Structure (SMILES): CO[C@@H]1[C@H](O)[C@@H](CO)O[C@H]1n1cnc2c(=O)[nH]c(N)nc21 [Cmpd 18, 2′-O-methylguanosine]
Competition (MR1T cell clones [3]): YES

MRI upregulation [2, 4]: YES
Structure (SMILES): O=c1c2nc[nH]c2nc2ncccn12 [Cmpd 24, pyrimido(1,2-a)purin-10(1H)-one]
Reactive T cells isolated (MR1T cell clones [1]): YES
activation of MR1T clone AC1A4 by adduct (MR1T cell clones [1]): activated
response to THP-1 cells when adduct added (MR1T cell clones [1]; M1G or M3ADE added to clones QY1A16 and QY1C3, respectively): significant decreased response
number of MR1T clones significantly stimulated (MR1T cell clones [1]): three

MRI upregulation [2, 4]: YES
Structure (SMILES): CCCCCC(=O)Cc1c[nH]c2nc3c(ncn3[C@H]3C[C@H](O)[C@@H](CO)O3)c(=O)n12 [Cmpd 25, 3-((2R,5R)-4-hydroxy-5-(hydroxymethyl)tetrahydrofuran-2-yl)-7-(2-oxoheptyl)-3H-imidazo[1,2-a]purin-9(5H)-one]

MRI upregulation [2, 4]: YES
Structure (SMILES): CO[C@@H]1[C@H](O)[C@@H](CO)O[C@H]1n1ccc(N)nc1=O [Cmpd 29, 2′-O-methylcytidine]
Competition (MR1T cell clones [3]): YES

MRI upregulation [2, 4]: YES
Structure (SMILES): Cc1cn([C@@H]2O[C@H](CO)[C@@H](O)[C@H]2O)c(=O)[nH]c1=O [Cmpd 31, 5-methyluridine]
Competition (MR1T cell clones [3]): YES

MRI upregulation [2, 4]: YES
Structure (SMILES): CO[C@@H]1[C@H](O)[C@@H](CO)O[C@H]1n1ccc(=O)n(C)c1=O [Cmpd 32, 3,2′-O-dimethyluridine]
Competition (MR1T cell clones [3]): YES

MRI upregulation [2, 4]: YES
Structure (SMILES): Nc1nc2c(c(CN[C@H]3C=C[C@H](O)[C@@H]3O)cn2[C@@H]2O[C@H](CO)[C@@H](O)[C@H]2O)c(=O)[nH]1 [Cmpd 33, Queuosine]
Competition (MR1T cell clones [3]): YES

MRI upregulation [2, 4]: YES
Structure (SMILES): COC(=O)N[C@@H](CCc1c(C)nc2n(C)c3c(ncn3[C@@H]3O[C@H](CO)[C@@H](O)[C@H]3O)c(=O)n12)C(=O)OC [Cmpd 34, Wybutosine]
Competition (MR1T cell clones [3]): YES

MRI upregulation [2, 4]: YES
Structure (SMILES): O=C/C=C/Nc1ccn([C@H]2C[C@H](O)[C@@H](CO)O2)c(=O)n1 [Cmpd 38, N4-(3-oxo-1-propenyl)-2′-deoxycytidine]

MRI upregulation [2, 4]: YES
Structure (SMILES): CSc1ncnc2c1ncn2[C@@H]1O[C@H](CO)[C@@H](O)[C@H]1O [Cmpd 40, (2R,3S,4R,5R)-2-(hydroxymethyl)-5-(6-(methylthio)-9H-purin-9-yl)tetrahydrofuran-3,4-diol]
Reactive T cells isolated (MR1T cell clones [1]): YES

MRI upregulation [2, 4]: YES
Structure (SMILES): CNc1ncnc2c1ncn2[C@@H]1O[C@H](CO)[C@@H](O)[C@H]1O [Cmpd 42, N6-methyladenosine]
Competition (MR1T cell clones [3]): YES

MRI downmodulation [2, 4]: YES
Structure (SMILES): Cn1c(N)nc2[nH]cnc2c1=O [Cmpd 47, 1-Methylguanine]

MRI upregulation [2, 4]: YES
Structure (SMILES): CNc1nc2c(ncn2[C@H]2C[C@H](O)[C@@H](CO)O2)c(=O)[nH]1 [Cmpd 48, N2-Methyl-2′-deoxyguanosine]

cell surface MR1 upregulation on APCs (in words) [2]: upregulation
Structure (SMILES): CN(C)c1ncnc2c1ncn2[C@@H]1O[C@H](CO)[C@@H](O)[C@H]1O [N6,N6-dimethyladenosine]

The next lines start with the compound.

Structure (SMILES): O=C/C=C/Nc1ccn([C@H]2C[C@H](O)[C@@H](CO)O2)c(=O)n1 (stereo in doubt) [Cmpd 38, N4-(3-oxo-1-propenyl)-2′-deoxycytidine]
activation of MR1T clone TC5A87 by adduct (MR1T cell clones [1]): activated
stimulation of MR1T clone QY1A16 by adduct (MR1T cell clones [1]): stimulated
number of MR1T clones significantly stimulated (MR1T cell clones [1]): three

Structure (SMILES): Nc1ncnc2c1ncn2[C@@H]1O[C@H](COP(=O)(O)OP(=O)(O)O)[C@@H](O)[C@H]1O [ADP, reference compound]
activation of MR1T clone MCA3C3 (IFN-γ) (MR1T cell clones [1]): activated

Structure (SMILES): Cn1cnc2c(ncn2[C@@H]2O[C@H](CO)[C@@H](O)[C@H]2O)c1=N [Cmpd 1, 1-methyladenosine]
MRI upregulation [2, 4]: YES
Competition (MR1T cell clones [3]): YES

Structure (SMILES): Cc1nc(N)c2ncn([C@@H]3O[C@H](CO)[C@@H](O)[C@H]3O)c2n1 [Cmpd 2, 2-methyladenosine]
MRI upregulation [2, 4]: YES
cell surface MR1 upregulation on APCs (in words) [2]: upregulation
Competition (MR1T cell clones [3]): YES

Structure (SMILES): CO[C@@H]1[C@H](O)[C@@H](CO)O[C@H]1n1cnc2c(N)ncnc21 [Cmpd 3, 2′-O-methyladenosine]
Reactive T cells isolated (MR1T cell clones [1]): YES
MRI upregulation [2, 4]: YES

Structure (SMILES): CN(C)c1ncnc2c1ncn2[C@@H]1O[C@H](CO)[C@@H](O)[C@H]1O [Cmpd 4, N6,N6-dimethyladenosine]
Reactive T cells isolated (MR1T cell clones [1]): YES
compound-specific MR1T cell activation (IFN-γ) (MR1T cell clones [1]; clones DGB129, MCA2E7 and TC5A87, THP-1 cells, overnight (FIG. 3)): activation
MRI upregulation [2, 4]: YES

Structure (SMILES): C/C(=C\CNc1ncnc2c1ncn2[C@@H]1O[C@H](CO)C(O)C1O)CO (stereo partly drawn) [Cmpd 7, N6-(cis-hydroxyisopent-2-enyl) adenosine]
Competition (MR1T cell clones [3]): YES

Structure (SMILES): CSc1nc(NC/C=C(\C)CO)c2ncn([C@@H]3O[C@H](CO)C(O)C3O)c2n1 (stereo partly drawn) [Cmpd 8, 2-methylthio-N6-(cis-hydroxyisopent-2-enyl) adenosine]
Reactive T cells isolated (MR1T cell clones [1]): YES
MRI upregulation [2, 4]: YES

Structure (SMILES): CSc1nc(NCC=C(C)C)c2ncn([C@@H]3O[C@H](CO)[C@@H](O)[C@H]3O)c2n1 [Cmpd 9, 2-methylthio-N6-isopent-2-enyladenosine]
Competition (MR1T cell clones [3]): YES

Structure (SMILES): O=C/C=C/Nc1ncnc2c1ncn2[C@H]1C[C@H](O)[C@@H](CO)O1 [Cmpd 12, N6-(3-oxo-1-propenyl)-2′-deoxyadenosine]
activation of MR1T clone AC1A4 by adduct (MR1T cell clones [1]): activated
activation of MR1T clone TC5A87 by adduct (MR1T cell clones [1]): activated
stimulation of MR1T clone QY1A16 by adduct (MR1T cell clones [1]): stimulated
number of MR1T clones significantly stimulated (MR1T cell clones [1]): eight

Structure (SMILES): Cn1c(N)nc2c(ncn2[C@@H]2O[C@H](CO)[C@@H](O)[C@H]2O)c1=O [Cmpd 15, 1-methylguanosine]
Reactive T cells isolated (MR1T cell clones [1]): YES
Competition (MR1T cell clones [3]): YES

Structure (SMILES): C[n+]1cn([C@@H]2O[C@H](CO)[C@@H](O)[C@H]2O)c2nc(N)[nH]c(=O)c21 [Cmpd 17, 7-methylguanosine]
Reactive T cells isolated (MR1T cell clones [1]): YES
Competition (MR1T cell clones [3]): YES

Structure (SMILES): CSC[C@H]1O[C@@H](n2cnc3c(N)ncnc32)[C@H](O)[C@@H]1O [Cmpd 52, 5′-Deoxy-5′-(methylthio)adenosine]
Competition (MR1T cell clones [3]): YES

Structure (SMILES): CNc1ncnc2c1ncn2[C@H]1C[C@H](O)[C@@H](CO)O1 [Cmpd 53, N6-Methyl-2′-deoxyadenosine]
Reactive T cells isolated (MR1T cell clones [1]): YES

Structure (SMILES): OCCNc1ncnc2c1ncn2[C@H]1C[C@H](O)[C@@H](CO)O1 [Cmpd 54, N6-(2-Hydroxyethyl)-2′-deoxyadenosine]
Reactive T cells isolated (MR1T cell clones [1]): YES

Structure (SMILES): CC(=O)C=O [MG, methylglyoxal, reference compound]
MR1T-cell stimulation by GLO1-deficient compared to wild-type THP-1 cells (MR1T cell clones [1]; clone DGB129, Methylglyoxal (FIG. 9I)): significantly increased
MR1T-cell stimulation with GLO1-overexpressing THP-1 cells (MR1T cell clones [1]; clone DGB129, Methylglyoxal (FIG. 9J)): failed to induce

Structure (SMILES): Nc1ncnc2nc[nH]c12 [adenine, reference compound]
activation of MR1T clone DGB129 (IFN-γ) (MR1T cell clones [1]): reacted

Structure (SMILES): Nc1ncnc2c1ncn2[C@@H]1O[C@H](CO)[C@@H](O)[C@H]1O [adenosine, reference compound]
activation of MR1T clone DGB129 (IFN-γ) (MR1T cell clones [1]): reacted

Structure (SMILES): Nc1ncnc2c1ncn2[C@H]1C[C@H](O)[C@@H](CO)O1 [deoxyadenosine, reference compound]
activation of MR1T clone DGB129 (IFN-γ) (MR1T cell clones [1]): reacted
MR1T reactivity using GLO1-deficient THP-1 cells as APCs (MR1T cell clones [1]; clone DGB129, deoxyadenosine (FIG. 9K)): increased
MR1T reactivity using GLO1-overexpressing THP-1 cells (MR1T cell clones [1]; clone DGB129, deoxyadenosine (FIG. 9L)): decreased

Structure (SMILES): Nc1nc2c(ncn2[C@H]2C[C@H](O)[C@@H](CO)O2)c(=O)[nH]1 [deoxyguanosine, reference compound]
activation of MR1T clone MCA3C3 (IFN-γ) (MR1T cell clones [1]): activated

Structure (SMILES): Nc1nc2nc[nH]c2c(=O)[nH]1 [guanine, reference compound]
activation of MR1T clone MCA3C3 (IFN-γ) (MR1T cell clones [1]): activated

Structure (SMILES): Nc1nc2c(ncn2[C@@H]2O[C@H](CO)[C@@H](O)[C@H]2O)c(=O)[nH]1 [guanosine, reference compound]
activation of MR1T clone MCA3C3 (IFN-γ) (MR1T cell clones [1]): activated

Structure (SMILES): OC[C@H]1O[C@@H](n2cnc3c(O)ncnc32)[C@H](O)[C@@H]1O [inosine, reference compound]
activation of MR1T clone DGB129 (IFN-γ) (MR1T cell clones [1]): reacted

Structure (SMILES): O=c1[nH]c(=O)c2ncn([C@@H]3O[C@H](CO)[C@@H](O)[C@H]3O)c2[nH]1 [xanthosine, reference compound]
activation of MR1T clone MCA3C3 (IFN-γ) (MR1T cell clones [1]): activated
